Experiments:
[1] = tested on: Blumeria graminis f.sp. tritici; assay: Blumeria test (wheat)/protective; assay type: in vivo; details: protective, 1000 ppm, evaluation 7 days after inoculation
Method: Blumeria Test (Wheat)/Protective [table] To produce an appropriate active compound formulation, I part by weight of active compound is mixed with the specified amounts of solvent and emulsifier, and the concentrate is diluted with water to the desired concentration. To test for protective activity, young plants are sprayed with the preparation of active compound at the stated application rate. After the spray coating has dried on, the plants are dusted with spores of Blumeria graminis f.sp. tritici.

Plasmopara viticola = assay: Plasmopara test (grapevine)/protective; assay type: in vivo; details: protective, 100 ppm, evaluation 6 days after inoculation
Method: Plasmopara Test (Grapevine)/Protective [table] To produce an appropriate active compound formulation, I part by weight of active compound is mixed with the specified amounts of solvent and emulsifier, and the concentrate is diluted with water to the desired concentration. To test for protective efficacy, young plants are sprayed with the active compound formulation at the stated application rate. After the spray coating has dried on, the plants are inoculated with an aqueous spore suspension of Plasmopara viticola and then remain in an incubation cabin at about 20° C. and 100% relative atmospheric humidity for 1 day. The plants are then placed in a greenhouse at about 21° C. and about 90% atmospheric humidity for 4 days. The plants are then moistened and placed in an incubation cabin for 1 day.

Venturia inaequalis = assay: Venturia test (apple)/protective; assay type: in vivo; details: protective, 100 ppm, evaluation 10 days after inoculation
Method: Venturia Test (Apple)/Protective [table] To produce an appropriate active compound formulation, 1 part by weight of active compound is mixed with the specified amounts of solvent and emulsifier, and the concentrate is diluted with water to the desired concentration. To test for protective efficacy, young plants are sprayed with the active compound formulation at the stated application rate. After the spray coating has dried on, the plants are inoculated with an aqueous conidia suspension of the apple scab pathogen Venturia inaequalis and then remain in an incubation cabin at about 20° C. and 100% relative atmospheric humidity for 1 day. The plants are then placed in the greenhouse at about 21° C. and a relative atmospheric humidity of about 90%.

Alternaria solani = assay: Alternaria test (tomato)/protective; assay type: in vivo; details: protective, 500 ppm, evaluation 7 days after inoculation
Method: Alternaria Test (Tomato)/Protective [table] To produce an appropriate active compound formulation, 1 part by weight of active compound is mixed with the specified amounts of solvent and emulsifier, and the concentrate is diluted with water to the desired concentration. To test for protective activity, young tomato plants are sprayed with the preparation of active compound at the stated application rate. 1 day after the treatment, the plants are inoculated with a spore suspension of Alternaria solani and then remain at 100% relative humidity and 20° C. for 24 h. The plants then remain at 96% relative atmospheric humidity and a temperature of 20° C.

Sphaerotheca fuliginea = assay: Sphaerotheca test (cucumber)/protective; assay type: in vivo; details: protective, 500 ppm, evaluation 7 days after inoculation
Method: Sphaerotheca Test (Cucumber)/Protective [table] To produce an appropriate active compound formulation, 1 part by weight of active compound is mixed with the specified amounts of solvent and emulsifier, and the concentrate is diluted with water to the desired concentration. To test for protective activity, young cucumber plants are sprayed with the preparation of active compound at the stated application rate. 1 day after the treatment, the plants are inoculated with a spore suspension of Sphaerotheca fuliginea. The plants are then placed in a greenhouse at 70% relative atmospheric humidity and a temperature of 23° C.

Leptosphaeria nodorum = assay: In vitro test for determining the ED50 value with Leptosphaeria nodorum; assay type: cell-based; details: 50% inhibition of fungal growth, microtitre plates, 6 days, 20° C.
Method: In Vitro Test for Determining the ED50 Value with Leptosphaeria nodorum The cavities of 96-well microtitre plates are filled with 1.5 μl of a solution of the test compounds in DMSO. 150 μl of a glucose/peptone medium comprising the spores of the test fungus in a suitable concentration are introduced into each cavity. The test compounds in the microtitre cavities are used in concentrations of 20, 6, 2 and 0.6 ppm. The absorbance is determined photometrically at 620 nm. The microtitre plates are left at 20° C. and 85% relative atmospheric humidity for 6 days. Once the incubation time has passed, the growth of the test organisms is determined photometrically at a wavelength of 620 nm. The difference in absorbances before and after the incubation corresponds to the growth of the test fungi. Based on the difference of the absorbances at the various test concentrations and the difference of the absorbances of the untreated control, a dose/activity curve is calculated. The concentration required to inhibit fungal growth by 50% is determined and reported as ED50 value (=Effective Dose which causes 50% inhibition of growth) in ppm (=mg/l).

[2] = log P by HPLC on reversed-phase columns (EEC directive 79/831 Annex V.A8); assay type: physicochemical; details: acidic range pH 2.7, 0.1% aqueous formic acid/acetonitrile
Method: The log P values were measured according to EEC directive 79/831 Annex V.A8 by HPLC (High Performance Liquid Chromatography) on reversed-phase columns (C 18), using the method below:
The determination was carried out in the acidic range at pH 2.7 using the mobile phases 0.1% aqueous formic acid and acetonitrile; linear gradient from 10% acetonitrile to 95% acetonitrile.

Spodoptera frugiperda = Spodoptera frugiperda test (spray treatment); assay type: in vivo; details: maize leaf discs, 500 g/ha
Method: Spodoptera frugiperda Test (Spray Treatment) [table] To produce a suitable preparation of active compound, 1 part by weight of active compound is mixed with the stated amounts of solvents and emulsifier, and the concentrate is diluted with emulsifier-containing water to the desired concentration. Discs of maize leaves (Zea mays) are sprayed with an active compound preparation of the desired concentration and, after drying, populated with caterpillars of the armyworm (Spodoptera frugiperda). After the desired period of time, the effect in % is determined. 100% means that all caterpillars have been killed; 0% means that none of the caterpillars have been killed.

Meloidogyne incognita = assay: Meloidogyne test (spray treatment); assay type: in vivo; details: lettuce, 20 ppm
Method: Meloidogyne Test (Spray Treatment) [table] To prepare a suitable active compound preparation, 1 part by weight of active compound is mixed with the stated amount of solvent and the concentrate is diluted with water to the desired concentration. Containers are filled with sand, solution of active compound, Meloidogyne incognita egg/larvae suspension and lettuce seeds. The lettuce seeds germinate and the plants develop. On the roots, galls are formed. After the desired period of time, the nematicidal action is determined in % by the gall formation. 100% means that no galls have been found; 0% means that the number of galls on the treated plants corresponds to that of the untreated control.

Structure (SMILES)	efficacy [1] [%]	efficacy (Plasmopara viticola) [%]	efficacy (Venturia inaequalis) [%]	efficacy (Alternaria solani) [%]	efficacy (Sphaerotheca fuliginea) [%]	ED50 (Leptosphaeria nodorum) [ppm]	log P [2]	activity (caterpillars killed) (Spodoptera frugiperda) [%]	activity (nematicidal action by gall formation) (Meloidogyne incognita) [%]
O=C1ON=C(c2ccccc2)C1=Cc1ccc(Cl)cc1 [Compound A-2]	29	38	16	0	20				
CC1=NOC(=O)C1=Cc1ccccc1 [Compound A-3]	57	55	48	0	30				
CC1=NOC(=O)C1=Cc1ccc(C)cc1 [Compound A-4]	43	35	9	0	30	14			
COc1ccc(C=C2C(=O)ON=C2C)cc1 [Compound A-5]	29	40	59	0	40				
O=C1ON=C(c2ccccc2)C1=Cc1ccccc1Cl [Compound A-6]	29	38	14	0	50				
CC1=NOC(=O)C1=Cc1ccc(N(C)C)cc1 [Compound A-7]	0	45	0	0	10				
CC1=NOC(=O)/C1=C\c1ccco1 [Compound A-8]	29	28	6	0	0				
Cc1cc(C)c(C=C2C(=O)ON=C2c2c(F)cccc2F)c(C)c1 [Compound I-24]							4.09	≥ 80	
Cc1cc(C)c(C=C2C(=O)ON=C2c2ccc(Cl)cc2)c(C)c1 [Compound I-70]							4.50		≥ 80
